Assay results: patent US20230085307A1, “PYRIDAZINONE COMPOUND AND HERBICIDE” (NISSAN CHEMICAL CORPORATION, priority 2019, published 2023)

Tests used:
[1] = tested on: windgrass; assay: Test Example 4: herbicidal effect by soil treatment (Table 19, symbol L); type: in vivo, windgrass (Apera spica-venti); conditions: amount of applied herbicide 320 g/ha
In short: (§1)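 Pre-emergence style soil spray: seeds under ~1.5 cm sterilized diluvial soil received a uniform coat of emulsion diluted to the predetermined herbicide amount. Greenhouse 25–30° C; readout at week three on previously defined criteria.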

[2] = tested on: persian speedwell; assay: Test Example 5: herbicidal effect by foliage application, plastic box (Table 20, symbol R); type: in vivo, Persian speedwell (Veronica persica); conditions: foliage application, 320 g/ha, three weeks after application
In short: (§2)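 Plants were sown into sterilized diluvial soil under about 1.5 cm cover and kept in a greenhouse at 25° C. to 30° C. Fourteen days on, foliage received an even spray of the diluted emulsion. Herbicidal or crop effect was judged three weeks afterwards.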

[3] = tested on: blackgrass; assay: Test Example 5: herbicidal effect by foliage application, plastic box (Table 20, symbol J); type: in vivo, blackgrass (Alopecurus myosuroides); conditions: foliage application, 320 g/ha, three weeks after application
In short: as §2

[4] = tested on: Italian ryegrass; assay: Test Example 5: herbicidal effect by foliage application, plastic box (Table 20, symbol K); type: in vivo, Italian ryegrass (Lolium multiflorum); conditions: foliage application, 320 g/ha, three weeks after application
In short: as §2

[5] = tested on: velvetleaf; assay: Test Example 5: herbicidal effect by foliage application, plastic box (Table 20, symbol M); type: in vivo, velvetleaf (Abutilon theophrasti); conditions: foliage application, 320 g/ha, three weeks after application
In short: as §2

[6] = tested on: lambsquarters; assay: Test Example 4: herbicidal effect by soil treatment (Table 19, symbol O); type: in vivo, lambsquarters (Chenopodium album); conditions: amount of applied herbicide 320 g/ha
In short: as §1

[7] = tested on: barnyard grass; assay: Test Example 3: herbicidal effect by foliage application, Wagner pot (Table 18, symbol H); type: in vivo, barnyard grass (Echinochloa crus-galli)
In short: (§3)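 Plants were sown in alluvial soil held under 0.1–0.5 cm standing water and grown 14 days in a greenhouse at 25–30 °C. An emulsifiable formulation, water-diluted to the set dose, was then sprayed onto the foliage, and effects were scored three weeks later using previously defined criteria.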

[8] = tested on: blackgrass; assay: Test Example 4: herbicidal effect by soil treatment (Table 19, symbol J); type: in vivo, blackgrass (Alopecurus myosuroides); conditions: amount of applied herbicide 320 g/ha
In short: as §1

[9] = tested on: Italian ryegrass; assay: Test Example 4: herbicidal effect by soil treatment (Table 19, symbol K); type: in vivo, Italian ryegrass (Lolium multiflorum); conditions: amount of applied herbicide 320 g/ha
In short: as §1

[10] = tested on: green foxtail; assay: Test Example 5: herbicidal effect by foliage application, plastic box (Table 20, symbol G); type: in vivo, green foxtail (Setaria viridis); conditions: foliage application, 320 g/ha, three weeks after application
In short: as §2

[11] = tested on: wild oat; assay: Test Example 5: herbicidal effect by foliage application, plastic box (Table 20, symbol I); type: in vivo, wild oat (Avena fatua); conditions: foliage application, 320 g/ha, three weeks after application
In short: as §2

[12] = tested on: barnyard grass; assay: Test Example 4: herbicidal effect by soil treatment (Table 19, symbol H); type: in vivo, barnyard grass (Echinochloa crus-galli); conditions: amount of applied herbicide 320 g/ha
In short: as §1

[13] = tested on: southern crabgrass; assay: Test Example 5: herbicidal effect by foliage application, plastic box (Table 20, symbol F); type: in vivo, southern crabgrass (Digitaria ciliaris); conditions: foliage application, 320 g/ha, three weeks after application
In short: as §2

[14] = tested on: chickweed; assay: Test Example 4: herbicidal effect by soil treatment (Table 19, symbol P); type: in vivo, common chickweed (Stellaria media); conditions: amount of applied herbicide 320 g/ha
In short: as §1

[15] = tested on: lambsquarters; assay: Test Example 5: herbicidal effect by foliage application, plastic box (Table 20, symbol O); type: in vivo, lambsquarters (Chenopodium album); conditions: foliage application, 320 g/ha, three weeks after application
In short: as §2

[16] = tested on: barnyard grass; assay: Test Example 5: herbicidal effect by foliage application, plastic box (Table 20, symbol H); type: in vivo, barnyard grass (Echinochloa crus-galli); conditions: foliage application, 320 g/ha, three weeks after application
In short: as §2

[17] = tested on: southern crabgrass; assay: Test Example 4: herbicidal effect by soil treatment (Table 19, symbol F); type: in vivo, southern crabgrass (Digitaria ciliaris); conditions: amount of applied herbicide 320 g/ha
In short: as §1

[18] = tested on: oval-leafed pondweed; assay: Test Example 1: herbicidal activity, application before weed generation under submerged conditions (Table 16, symbol C); type: in vivo, oval-leafed pondweed (Monochoria vaginalis); conditions: amount of applied herbicide 320 g/ha
In short: (§4)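 Alluvial soil was flooded to 4 cm depth, weed seeds were sown mixed and 2.5-leaf rice seedlings were transplanted. On sowing day, the compound's emulsion, diluted in water to a set dose, was applied to the water surface. Plants grew at 25–30 °C and were scored 0–5 after three weeks.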

[19] = tested on: rice flat sedge; assay: Test Example 3: herbicidal effect by foliage application, Wagner pot (Table 18, symbol E); type: in vivo, rice flat sedge (Cyperus iria)
In short: as §3

[20] = tested on: late watergrass; assay: Test Example 1: herbicidal activity, application before weed generation under submerged conditions (Table 16, symbol A); type: in vivo, late watergrass (Echinochloa oryzicola); conditions: amount of applied herbicide 320 g/ha
In short: as §4

[21] = tested on: velvetleaf; assay: Test Example 4: herbicidal effect by soil treatment (Table 19, symbol M); type: in vivo, velvetleaf (Abutilon theophrasti); conditions: amount of applied herbicide 320 g/ha
In short: as §1

[22] = tested on: redroot pigweed; assay: Test Example 4: herbicidal effect by soil treatment (Table 19, symbol N); type: in vivo, redroot pigweed (Amaranthus retroflexus); conditions: amount of applied herbicide 320 g/ha
In short: as §1

[23] = tested on: wild oat; assay: Test Example 4: herbicidal effect by soil treatment (Table 19, symbol I); type: in vivo, wild oat (Avena fatua); conditions: amount of applied herbicide 320 g/ha
In short: as §1

[24] = tested on: Japanese bulrush; assay: Test Example 1: herbicidal activity, application before weed generation under submerged conditions (Table 16, symbol B); type: in vivo, Japanese bulrush (Schoenoplectus juncoides); conditions: amount of applied herbicide 320 g/ha
In short: as §4

[25] = tested on: windgrass; assay: Test Example 5: herbicidal effect by foliage application, plastic box (Table 20, symbol L); type: in vivo, windgrass (Apera spica-venti); conditions: foliage application, 320 g/ha, three weeks after application
In short: as §2

[26] = tested on: persian speedwell; assay: Test Example 4: herbicidal effect by soil treatment (Table 19, symbol R); type: in vivo, Persian speedwell (Veronica persica); conditions: amount of applied herbicide 320 g/ha
In short: as §1

[27] = tested on: Chinese sprangletop; assay: Test Example 3: herbicidal effect by foliage application, Wagner pot (Table 18, symbol D); type: in vivo, chinese sprangletop (Leptochloa chinensis)
In short: as §3

[28] = tested on: green foxtail; assay: Test Example 4: herbicidal effect by soil treatment (Table 19, symbol G); type: in vivo, green foxtail (Setaria viridis); conditions: amount of applied herbicide 320 g/ha
In short: as §1

[29] = amount of applied herbicide 320 g/ha

| Compound | L: windgrass, herbicidal effect grade [1] | herbicidal effect on persian speedwell (R) [2] | herbicidal effect on blackgrass (J) [3] | herbicidal effect on Italian ryegrass (K) [4] | herbicidal effect on velvetleaf (M) [5] | O: lambsquarters, herbicidal effect grade [6] | J: blackgrass, herbicidal effect grade [8] | K: Italian ryegrass, herbicidal effect grade [9] | herbicidal effect on green foxtail (G) [10] | herbicidal effect on wild oat (I) [11] | H: barnyard grass, herbicidal effect grade [12] | herbicidal effect on southern crabgrass (F) [13] | P: chickweed, herbicidal effect grade [14] | herbicidal effect on lambsquarters (O) [15] | herbicidal effect on barnyard grass (H) [16] | F: southern crabgrass, herbicidal effect grade [17] | Herbicidal effect, C: oval-leafed pondweed [18] | Herbicidal effect, A: late watergrass [20] | M: velvetleaf, herbicidal effect grade [21] | N: redroot pigweed, herbicidal effect grade [22] | further results |
| --- | --- | --- | --- | --- | --- | --- | --- | --- | --- | --- | --- | --- | --- | --- | --- | --- | --- | --- | --- | --- | --- |
| CCCC(=O)Oc1c(C)nn(C)c(=O)c1-c1c(-c2ccc(F)cc2OC)sc2cc(Cl)c(Cl)cc12 [5-052] | 0 (Herbicidal rate of 5% or less (almost no effect)) | 4 (Herbicidal rate of 70% or more and less than 90%) | 4 (Herbicidal rate of 70% or more and less than 90%) | 0 (Herbicidal rate of 5% or less (almost no effect)) | 4 (Herbicidal rate of 70% or more and less than 90%) | 3 (Herbicidal rate of 40% or more and less than 70%) | 0 (Herbicidal rate of 5% or less (almost no effect)) | 0 (Herbicidal rate of 5% or less (almost no effect)) | 3 (Herbicidal rate of 40% or more and less than 70%) | 0 (Herbicidal rate of 5% or less (almost no effect)) | 0 (Herbicidal rate of 5% or less (almost no effect)) | 0 (Herbicidal rate of 5% or less (almost no effect)) | 3 (Herbicidal rate of 40% or more and less than 70%) | 5 (Herbicidal rate of 90% or more (almost completely withered)) | 4 (Herbicidal rate of 70% or more and less than 90%) | 0 (Herbicidal rate of 5% or less (almost no effect)) | 0 (Herbicidal rate of 5% or less (almost no effect)) | 0 (Herbicidal rate of 5% or less (almost no effect)) | 0 (Herbicidal rate of 5% or less (almost no effect)) | 2 (Herbicidal rate of 20% or more and less than 40%) | herbicidal effect on barnyard grass (H) ([7]; 320 g/ha): 5 (Herbicidal rate of 90% or more (almost completely withered)); herbicidal effect on rice flat sedge (E) ([19]; 320 g/ha): 5 (Herbicidal rate of 90% or more (almost completely withered)); I: wild oat, herbicidal effect grade [23]: 0 (Herbicidal rate of 5% or less (almost no effect)); Herbicidal effect, B: Japanese bulrush [24]: 3 (Herbicidal rate of 40% or more and less than 70%); herbicidal effect on windgrass (L) [25]: 4 (Herbicidal rate of 70% or more and less than 90%); R: persian speedwell, herbicidal effect grade [26]: 0 (Herbicidal rate of 5% or less (almost no effect)); herbicidal effect on Chinese sprangletop (D) ([27]; 320 g/ha): 3 (Herbicidal rate of 40% or more and less than 70%); G: green foxtail, herbicidal effect grade [28]: 0 (Herbicidal rate of 5% or less (almost no effect)) |
| Cc1nn(C)c(=O)c(-c2c(-c3ccc(Cl)cc3)oc3ccc(F)cc23)c1O [9-016] | 4 (Herbicidal rate of 70% or more and less than 90%) | 5 (Herbicidal rate of 90% or more (almost completely withered)) | 4 (Herbicidal rate of 70% or more and less than 90%) | 5 (Herbicidal rate of 90% or more (almost completely withered)) | 5 (Herbicidal rate of 90% or more (almost completely withered)) | 4 (Herbicidal rate of 70% or more and less than 90%) | 0 (Herbicidal rate of 5% or less (almost no effect)) | 4 (Herbicidal rate of 70% or more and less than 90%) | 5 (Herbicidal rate of 90% or more (almost completely withered)) | 4 (Herbicidal rate of 70% or more and less than 90%) | 4 (Herbicidal rate of 70% or more and less than 90%) | 4 (Herbicidal rate of 70% or more and less than 90%) | 3 (Herbicidal rate of 40% or more and less than 70%) | 5 (Herbicidal rate of 90% or more (almost completely withered)) | 5 (Herbicidal rate of 90% or more (almost completely withered)) | 3 (Herbicidal rate of 40% or more and less than 70%) | 0 (Herbicidal rate of 5% or less (almost no effect)) | 3 (Herbicidal rate of 40% or more and less than 70%) | 1 (Herbicidal rate of 5% or more and less than 20%) | 5 (Herbicidal rate of 90% or more (almost completely withered)) | Herbicidal effect on H (barnyard grass), foliage application [7, 29]: 5 (Herbicidal rate of 90% or more (almost completely withered)); Herbicidal effect on E (rice flat sedge), foliage application [19, 29]: 4 (Herbicidal rate of 70% or more and less than 90%); I: wild oat, herbicidal effect grade [23]: 2 (Herbicidal rate of 20% or more and less than 40%); Herbicidal effect, B: Japanese bulrush [24]: 0 (Herbicidal rate of 5% or less (almost no effect)); herbicidal effect on windgrass (L) [25]: 4 (Herbicidal rate of 70% or more and less than 90%); R: persian speedwell, herbicidal effect grade [26]: 5 (Herbicidal rate of 90% or more (almost completely withered)); Herbicidal effect on D (Chinese sprangletop), foliage application [27, 29]: 5 (Herbicidal rate of 90% or more (almost completely withered)); G: green foxtail, herbicidal effect grade [28]: 4 (Herbicidal rate of 70% or more and less than 90%) |
